We go through two molecules from ChEMBL document CHEMBL5678818, “Discovery of potent SOS1 inhibitors that block RAS activation via disruption of the RAS-SOS1 interaction” (Proc Natl Acad Sci U S A, 2019).

pIC50: −log10 of the molar value.

In experiment [1] the target is T1, Son of sevenless homolog 1 (Homo sapiens, UniProt Q07889).
T1 sequence (Q07889 whole entry): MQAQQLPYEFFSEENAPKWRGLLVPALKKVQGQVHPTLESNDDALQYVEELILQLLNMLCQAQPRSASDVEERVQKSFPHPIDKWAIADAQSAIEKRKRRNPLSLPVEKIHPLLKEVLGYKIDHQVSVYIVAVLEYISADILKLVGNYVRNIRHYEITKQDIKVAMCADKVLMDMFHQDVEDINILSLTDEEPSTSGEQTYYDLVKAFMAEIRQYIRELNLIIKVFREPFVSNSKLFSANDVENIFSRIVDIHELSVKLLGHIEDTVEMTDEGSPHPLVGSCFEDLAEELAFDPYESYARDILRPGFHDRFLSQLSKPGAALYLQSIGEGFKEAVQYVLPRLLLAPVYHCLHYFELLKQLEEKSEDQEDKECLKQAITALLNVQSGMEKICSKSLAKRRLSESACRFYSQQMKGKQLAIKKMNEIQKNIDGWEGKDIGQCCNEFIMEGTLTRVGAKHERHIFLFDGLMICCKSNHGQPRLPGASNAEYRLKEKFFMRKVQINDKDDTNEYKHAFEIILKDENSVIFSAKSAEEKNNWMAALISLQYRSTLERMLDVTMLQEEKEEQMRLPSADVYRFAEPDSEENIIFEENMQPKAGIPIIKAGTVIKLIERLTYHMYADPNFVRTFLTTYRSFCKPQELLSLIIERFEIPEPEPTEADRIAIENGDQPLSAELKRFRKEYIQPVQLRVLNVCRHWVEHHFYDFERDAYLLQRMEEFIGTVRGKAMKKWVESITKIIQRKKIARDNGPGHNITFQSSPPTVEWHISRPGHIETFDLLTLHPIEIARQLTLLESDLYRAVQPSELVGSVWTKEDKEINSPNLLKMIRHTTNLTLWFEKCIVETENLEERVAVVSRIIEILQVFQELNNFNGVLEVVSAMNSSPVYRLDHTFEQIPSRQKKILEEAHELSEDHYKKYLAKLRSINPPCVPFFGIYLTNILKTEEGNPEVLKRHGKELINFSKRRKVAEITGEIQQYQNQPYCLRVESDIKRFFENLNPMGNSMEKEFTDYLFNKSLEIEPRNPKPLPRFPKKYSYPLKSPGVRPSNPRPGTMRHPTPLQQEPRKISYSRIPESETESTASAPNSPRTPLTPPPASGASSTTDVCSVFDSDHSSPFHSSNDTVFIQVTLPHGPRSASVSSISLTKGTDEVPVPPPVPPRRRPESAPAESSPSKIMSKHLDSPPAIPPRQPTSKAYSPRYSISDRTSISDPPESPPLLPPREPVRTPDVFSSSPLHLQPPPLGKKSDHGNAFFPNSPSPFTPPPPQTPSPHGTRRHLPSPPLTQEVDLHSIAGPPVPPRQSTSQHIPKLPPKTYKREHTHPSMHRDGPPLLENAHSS
Briefly: Inhibition of SOS1 in human HeLa cells assessed as reduction in RAS activation pretreated for 30 mins followed by EGF stimulation for 3 mins by G-LISA analysis. The experiment is classed as cell-based.

The species entered for experiment [2] is Homo sapiens. Briefly: Inhibition of PIP5K1C (unknown origin) assessed as residual activity at 100 nM by KINOMEscan analysis relative to control.
The target of experiment [3] is LIM domain kinase 2 (Homo sapiens) (UniProt P53671). The experiment in a line: Inhibition of LIMK2 (unknown origin) assessed as residual activity at 100 nM by KINOMEscan analysis relative to control.
Experiment [4] has as its target T2, Dual specificity tyrosine-phosphorylation-regulated kinase 2 (Homo sapiens) (UniProt Q92630).
T2 sequence (whole entry): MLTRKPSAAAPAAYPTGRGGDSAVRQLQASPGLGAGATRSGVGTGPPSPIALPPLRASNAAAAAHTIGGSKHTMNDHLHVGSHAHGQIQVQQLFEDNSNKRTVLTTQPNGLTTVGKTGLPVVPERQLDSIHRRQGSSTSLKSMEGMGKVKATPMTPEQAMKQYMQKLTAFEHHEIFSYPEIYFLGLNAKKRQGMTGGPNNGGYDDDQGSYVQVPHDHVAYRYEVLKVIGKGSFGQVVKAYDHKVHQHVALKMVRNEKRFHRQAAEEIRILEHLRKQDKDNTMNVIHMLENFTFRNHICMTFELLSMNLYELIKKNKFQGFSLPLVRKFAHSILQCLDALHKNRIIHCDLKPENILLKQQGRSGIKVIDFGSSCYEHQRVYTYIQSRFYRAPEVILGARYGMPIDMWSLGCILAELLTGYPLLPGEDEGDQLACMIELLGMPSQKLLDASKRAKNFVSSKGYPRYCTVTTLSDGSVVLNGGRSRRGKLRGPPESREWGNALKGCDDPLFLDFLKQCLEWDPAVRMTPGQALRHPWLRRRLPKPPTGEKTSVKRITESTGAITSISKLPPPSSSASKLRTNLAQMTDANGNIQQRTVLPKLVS
Briefly: Inhibition of DYRK2 (unknown origin) assessed as residual activity at 100 nM by KINOMEscan analysis relative to control.

The test system of experiment [5] is Serine/threonine-protein kinase B-raf (Homo sapiens), P15056 [V600E]. The experiment in a line: Inhibition of BRAF V600E mutant (unknown origin) assessed as residual activity at 100 nM by KINOMEscan analysis relative to control.
Chain of Serine/threonine-protein kinase B-raf (Homo sapiens), P15056 [V600E] (P15056 whole entry V600E): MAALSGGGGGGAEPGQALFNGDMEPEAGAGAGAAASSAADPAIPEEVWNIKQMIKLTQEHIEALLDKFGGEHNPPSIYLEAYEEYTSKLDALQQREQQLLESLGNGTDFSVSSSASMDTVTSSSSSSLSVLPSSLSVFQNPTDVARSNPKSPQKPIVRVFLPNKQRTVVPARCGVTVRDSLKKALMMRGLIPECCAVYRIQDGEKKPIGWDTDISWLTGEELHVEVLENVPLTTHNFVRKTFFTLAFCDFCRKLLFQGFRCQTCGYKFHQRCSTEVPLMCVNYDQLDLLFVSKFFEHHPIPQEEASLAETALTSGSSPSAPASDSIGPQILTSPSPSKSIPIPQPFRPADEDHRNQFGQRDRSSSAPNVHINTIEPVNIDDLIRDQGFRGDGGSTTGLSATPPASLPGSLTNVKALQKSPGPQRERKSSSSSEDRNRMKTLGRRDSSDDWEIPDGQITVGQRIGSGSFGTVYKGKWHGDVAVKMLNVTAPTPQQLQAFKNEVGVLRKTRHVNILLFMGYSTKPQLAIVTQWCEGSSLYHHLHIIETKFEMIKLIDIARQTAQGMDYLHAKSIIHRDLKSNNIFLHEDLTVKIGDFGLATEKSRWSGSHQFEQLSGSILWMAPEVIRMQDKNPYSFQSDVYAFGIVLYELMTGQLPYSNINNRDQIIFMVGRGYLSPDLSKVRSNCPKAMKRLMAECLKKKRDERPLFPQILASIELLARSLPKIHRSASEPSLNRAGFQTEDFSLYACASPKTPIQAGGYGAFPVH

Chain of LIM domain kinase 2 (Homo sapiens) (P53671 whole entry, looked up, the tested form may be a part): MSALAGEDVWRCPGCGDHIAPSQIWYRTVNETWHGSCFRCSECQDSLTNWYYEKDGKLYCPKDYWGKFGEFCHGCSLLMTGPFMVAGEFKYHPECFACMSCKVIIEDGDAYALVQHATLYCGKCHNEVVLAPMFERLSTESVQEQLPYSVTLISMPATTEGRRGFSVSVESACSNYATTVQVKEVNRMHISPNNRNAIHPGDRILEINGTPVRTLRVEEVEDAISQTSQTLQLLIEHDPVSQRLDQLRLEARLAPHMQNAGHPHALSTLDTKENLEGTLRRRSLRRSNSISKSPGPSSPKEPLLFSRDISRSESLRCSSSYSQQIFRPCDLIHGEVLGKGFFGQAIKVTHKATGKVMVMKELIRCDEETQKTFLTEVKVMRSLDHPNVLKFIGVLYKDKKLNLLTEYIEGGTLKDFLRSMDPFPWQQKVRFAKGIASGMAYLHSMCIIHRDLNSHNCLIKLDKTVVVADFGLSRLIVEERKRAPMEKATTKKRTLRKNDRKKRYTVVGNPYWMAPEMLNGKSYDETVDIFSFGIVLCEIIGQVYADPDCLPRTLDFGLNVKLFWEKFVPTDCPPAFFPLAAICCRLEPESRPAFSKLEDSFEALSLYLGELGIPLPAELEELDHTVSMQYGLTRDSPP

For orientation: pIC50 means the IC50 on a negative log10 scale, so that one unit is a factor of ten. Turning to `COc1cc2nc(C)nc(NC(C)c3ccc(-c4cnc5n4CCC5)s3)c2cc1OC` (stereo not given), the pIC50 in experiment [1] was 5.27.

For the molecule `COc1cc2ncnc(N[C@H](C)c3cccc4ccccc34)c2cc1OC`, the Activity in experiment [2] came to 63%; in experiment [3] it was 28%; in experiment [4] it was 80%; in experiment [5] it was 92%.
